Reference: patent US5773236A, “Assay for glutathiane transferase using polyhaloaryl-substituted reporter molecules” (Molecule Probes, Inc., priority 1997, dated 1998)

How the values were obtained:
β-galactosidase = assay: Glycosidase analysis in vitro (Example 60); type: biochemical; settings: substrate 333 μM, room temperature, 20 minutes
Protocol: The stock reagents required are: 1) Compound 9 (Example 7) 5 mM in ethanol; 2) Reaction buffer: 0.3M potassium phosphate, 3 mM MgCl2 pH 7.5; 3) β-galactosidase (Boehringer-Mannheim), dissolved at 10 mg/mL in 0.05M potassium phosphate, pH 7; 4) Enzyme diluent: 0.01M Tris HCl, 0.01M MgCl2, 0.01M NaCl, 0.01M β-mercaptoethanol, pH 7.5. 130 μL of the reaction buffer is added to a series of rows and columns in a microplate. To each of the wells with reaction buffer is added 10 μL of the substrate solution. The enzyme stock solution is diluted to 1 mg/mL, 0.1 mg/mL, 10 μg/mL, 1 μg/mL, 0.1 μg/mL and 0 μg/mL. To the wells containing reaction buffer and substrate, 10 μL of each of the different concentration enzyme solutions is added. The wells containing 0 μg/mL enzyme serve as controls. The plate is allowed to incubate at room temperature for 20 minutes. Fluorescence of each well is determined using a 485 nm excitation filter, a 530 nm emission filter and gain setting of 40. Using the above conditions, as little as 6.7 ng/mL enzyme can be detected using the substrate at 333 μM concentration. The fluorescence response is linear until the enzyme concentration reaches ~6.7 μg/mL.

[1] = system: NIH-3T3 cells (lacZ negative); assay: β-galactosidase activity detection in cells by microscopy, lacZ negative (Example 61); type: cell-based; settings: 50 nM, 37° C., 35 minutes
Protocol: (§1) NIH-3T3 cells (lacZ negative) and CRE BAG 2 cells (lacZ positive) are obtained from American Type Culture Collection Co., Rockville, Md. They are grown in a humidified atmosphere of 5% CO2 in D-MEM supplemented with 10% bovine calf serum, 50 μg/mL gentamycin, 300 μg/mL L-glutamine and 10 mM HEPES, pH 7.4. A 50 μM stock solution of Compound 9 is prepared in water: dimethylformamide (DMF) (1:1). NIH-3T3 and CRE BAG 2 cells are trypsinized, washed and suspended in D-MEM containing 10% BCS. 10 μL of the cell suspension is added to 0.989 mL of the same medium. 1 μL of the 50 μM substrate solution is added to the cells to obtain a final concentration of 50 nM. Incubation is carried out at 37° C. for 35 minutes. Cells are centrifuged to form a pellet, supernatant is discarded and cells are resuspended in D-MEM with 10% BCS. Cells are mounted on slides and observed by fluorescence microscopy.

[2] = system: CRE BAG 2 cells (lacZ positive); assay: β-galactosidase / lacZ detection in cells by microscopy, lacZ positive (Example 61); type: cell-based; settings: 50 nM, 37° C., 35 minutes
Protocol: as §1

β-D-galactosidase = assay: Detection of β-D-galactosidase on a membrane blot (Example 64); type: biochemical; settings: nitrocellulose, room temperature, 1 hour plus 30 minutes
Protocol: The reagents used are: 1) Compound 9, 5 mM in ethanol; 2) β-D-galactosidase, 10 mg/mL in 0.05M potassium phosphate, pH 7; 3) Enzyme diluent: 0.01M Tris, 0.01M MgCl2, 0.01M mercaptoethanol, 0.01M NaCl, 1% BSA, pH 7.5; 4) 1% BSA in PBS, pH 7.2; 5) Reaction buffer: 0.3M potassium phosphate, 3 mM MgCl2, pH 7.5; 6) Wash buffer: 20 mM Tris, 137 mM NaCl, 0.5% Tween 20, pH 7.5. A stock solution of β-galactosidase is diluted in enzyme diluent to obtain solutions with the following concentrations: 1 μg/μL, 0.1 μg/μL, 0.01 μg/μL, 1 ng/μL, 0.1 ng/μL and 0 ng/μL. 1 μL of each diluted solution is spotted on a two nitrocellulose membranes (1"×1"), pore size 0.45 μM, and dried immediately by blowing argon on the membranes. One of the membranes is blocked by treatment with 1% BSA in PBS for 20 minutes at room temperature. The following mixture is prepared: 4.95 mL of reaction buffer+[…] of Compound 9 stock solution. 2 mL of this solution is added to each of the blots and incubation is carried out at room temperature for 1 hour. The blots are washed once with 2 mL of wash buffer. 0.5 mL of the mixture described above is once again added to the blots and incubation is carried out at room temperature for 30 minutes. The blots are allowed to dry and an image is obtained by illuminating with reflected UV light at 254 nm. […]

O=C1OC2(c3ccc(O[C@@H]4O[C@H](CO)[C@H](O)[C@H](O)[C@H]4O)cc3Oc3cc(O[C@@H]4O[C@H](CO)[C@H](O)[C@H](O)[C@H]4O)ccc32)c2ccc(NC(=O)c3c(F)c(F)c(F)c(F)c3F)cc21 [Compound 9, 5-(pentafluorobenzoylamino)fluorescein di-β-D-galactopyranoside]
enzyme concentration up to which fluorescence response is linear (β-galactosidase): ~ 6.7 μg/mL
lowest enzyme concentration detected (β-galactosidase): 6.7 ng/mL
staining of cells, fluorescence microscopy [1]: green fluorescent lysosomes with very little cytoplasmic background
staining of cells, fluorescence microscopy [2]: green fluorescent lysosomes with well-stained green fluorescent cytoplasm
amount of enzyme detected (β-D-galactosidase): ~ 100 ng
